Where a SMILES comes first, the peptide text is derived from it. Bridges are numbered along the chain shown (N, C = ends). [ ]: non-standard residue; d: D form. The star is where a group is joined. hPhe(3-Cl-4-CF3) = N[C@@H](CCc1ccc(C(F)(F)F)c(Cl)c1)C(=O)O; NPrPhe(4-CF3) = CCCN[C@@H](Cc1ccc(C(F)(F)F)cc1)C(=O)O; NMeGly(cPent) = CN[C@H](C(=O)O)C1CCCC1; NMeD = CN[C@@H](CC(=O)O)C(=O)O; NMeL = CN[C@@H](CC(C)C)C(=O)O; Morpholide = C1CN(*)CCO1; NMeA = CN[C@@H](C)C(=O)O; Ac5c = NC1(C(=O)O)CCCC1; Aze = O=C(O)[C@@H]1CCN1; Abu = CC[C@H](N)C(=O)O; Sar = CNCC(=O)O
Assays:
[1] = target: GDP-bound HRAS wild-type protein (Homo sapiens, UniProt P01112); assay: Binding to HRAS by surface plasmon resonance (SPR), Single Cycle Kinetics
[2] = target: GDP-bound NRAS wild-type protein (Homo sapiens, UniProt P01111); assay: Binding to NRAS by surface plasmon resonance (SPR), Single Cycle Kinetics
[3] = KD ratio HRAS/KRAS, class symbols
[4] = KD ratio NRAS/KRAS, class symbols
[5] = KD ratio, GDP-bound HRAS wild-type vs GDP-bound KRAS wild-type, SPR
[6] = KD ratio, GDP-bound NRAS wild-type vs GDP-bound KRAS wild-type, SPR

GDP-bound HRAS wild-type protein, sequence (P01112 whole entry): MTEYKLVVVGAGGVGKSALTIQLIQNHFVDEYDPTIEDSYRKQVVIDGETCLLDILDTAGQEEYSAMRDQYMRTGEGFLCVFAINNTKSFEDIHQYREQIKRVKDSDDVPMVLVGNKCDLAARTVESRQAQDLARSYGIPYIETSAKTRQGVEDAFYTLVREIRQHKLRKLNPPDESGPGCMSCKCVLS
GDP-bound NRAS wild-type protein, sequence (P01111 whole entry): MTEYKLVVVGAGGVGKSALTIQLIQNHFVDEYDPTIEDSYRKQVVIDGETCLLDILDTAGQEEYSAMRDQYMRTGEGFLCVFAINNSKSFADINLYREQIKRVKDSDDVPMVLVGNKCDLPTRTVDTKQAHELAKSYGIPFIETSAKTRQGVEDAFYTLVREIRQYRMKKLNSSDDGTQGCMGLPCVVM

CCCN1C(=O)[C@@H]2CCN2C(=O)[C@H](C)N(C)C(=O)[C@H](CC)NC(=O)[C@H](CC(C)C)N(C)C(=O)C[C@@H](C(=O)N2CCOCC2)N(C)C(=O)[C@H](C2CCCC2)N(C)C(=O)C2(CCCC2)NC(=O)[C@@H]2CCCN2C(=O)[C@H](CCc2ccc(C(F)(F)F)c(Cl)c2)NC(=O)CN(C)C(=O)[C@@H]1Cc1ccc(C(F)(F)F)cc1 [PP0269] ([NMeL][Abu][NMeA][Aze][NPrPhe(4-CF3)][Sar][hPhe(3-Cl-4-CF3)]P[Ac5c][NMeGly(cPent)][NMeD]-Morpholide; lactam N-11)
HRAS/KRAS (ratio of KD for GDP-bound HRAS wild-type to KD for KRAS) ([1]; KD ratio HRAS/KRAS, SPR): B (a compound having 3 or more and less than 10 is denoted as B)
NRAS/KRAS (ratio of KD for GDP-bound NRAS wild-type to KD for KRAS) ([2]; KD ratio NRAS/KRAS, SPR): C (A compound having a KD ratio of 0.1 or more and less than 3 is denoted as C)

CCC[C@H]1C(=O)N[C@@H]([C@@H](C)CC)C(=O)N2CCC[C@H]2C(=O)N(C)[C@H]2C/C=C\CCN(C2=O)[C@@H](Cc2ccc(C(F)(F)F)cc2)C(=O)N(C)CC(=O)N[C@@H](CCc2ccc(C(F)(F)F)c(OC)c2)C(=O)N2C[C@H](OCC)C[C@H]2C(=O)N(C)C2(CCC2)C(=O)N(C)[C@@H](C2CCCC2)C(=O)N(C)[C@H](C(=O)N2CCCC2)CC(=O)N1C [PP3101]
HRAS/KRAS (ratio of KD value with respect to GDP-bound HRAS wild-type protein to KD value with respect to KRAS) ([1]; KD ratio HRAS/KRAS, SPR, GDP-bound wild-type proteins): A (a compound having 10 or more and less than 20 is denoted as A)
NRAS/KRAS (ratio of KD value with respect to GDP-bound NRAS wild-type protein to KD value with respect to KRAS) ([2]; KD ratio NRAS/KRAS, SPR, GDP-bound wild-type proteins): A (a compound having 10 or more and less than 20 is denoted as A)

CCO[C@@H]1C[C@H]2C(=O)NC3(CC(C)(C)C3)C(=O)N(C)[C@@H](C(CC)CC)C(=O)N(C)[C@H](C(=O)N(C)C)CC(=O)N(C)[C@H]3CC/C=C/c4ccc(cc4)C[C@@H](C(=O)N(C)CC(=O)N[C@@H](CCc4cc(F)c(C(F)(F)F)c(F)c4)C(=O)N2C1)N1CC/C=C\C[C@@H](C1=O)N(C)C(=O)CN(C)C(=O)[C@H]([C@@H](C)CC)NC3=O [PP2586]
HRAS/KRAS (ratio of KD value with respect to GDP-bound HRAS wild-type protein to KD value with respect to KRAS) [1, 3]: B (a compound having 3 or more and less than 10 is denoted as B)
NRAS/KRAS (ratio of KD value with respect to GDP-bound NRAS wild-type protein to KD value with respect to KRAS) [2, 4]: A (a compound having 10 or more and less than 20 is denoted as A)

CCC(CC)[C@H]1C(=O)N(C)[C@H](C(=O)N(C)C)CC(=O)N(C)[C@H]2CCC/C=C/c3ccc(cc3)C[C@@H](C(=O)N(C)CC(=O)N[C@@H](CCc3ccc(Cl)c(Cl)c3)C(=O)N3CCC[C@H]3C(=O)NC3(CC(C)(C)C3)C(=O)N1C)N1CC/C=C\C[C@@H](C1=O)N(C)C(=O)CN(C)C(=O)[C@H]([C@@H](C)CC)NC2=O [PP2603]
HRAS/KRAS (ratio of KD value with respect to GDP-bound HRAS wild-type protein to KD value with respect to KRAS) [1, 3]: A (a compound having 10 or more and less than 20 is denoted as A)
NRAS/KRAS (ratio of KD value with respect to GDP-bound NRAS wild-type protein to KD value with respect to KRAS) [2, 4]: AA (a compound having 20 or more is denoted as AA)

CCCO[C@H]1CCN2C(=O)[C@H](CCc3cc(F)c(C(F)(F)F)c(F)c3)NC(=O)CN(C)C(=O)[C@H](Cc3ccc(C(F)(F)F)cc3)N3CCCCC[C@@H](C3=O)N(C)C(=O)CN(C)C(=O)[C@H]([C@@H](C)CC)NC(=O)[C@H](CC(C)C)N(C)C(=O)C[C@@H](C(=O)N3CCOCC3)N(C)C(=O)[C@H](C3CCCC3)N(C)C(=O)C3(CCC3)NC(=O)[C@H]12 [PP1069]
HRAS/KRAS (ratio of KD value with respect to HRAS to KD value with respect to KRAS) [1, 5]: B (a compound having 3 or more and less than 10 is denoted as B)
NRAS/KRAS (ratio of KD value with respect to NRAS to KD value with respect to KRAS) [2, 6]: A (a compound having 10 or more and less than 20 is denoted as A)

CC[C@H](C)[C@@H]1NC(=O)[C@H](COC)N(C)C(=O)C[C@@H](C(=O)N(C)C)N(C)C(=O)[C@H](C2CCCC2)N(C)C(=O)C2(CC(C)(C)C2)NC(=O)[C@@H]2C[C@@H](OC3CCC3)CN2C(=O)[C@H](CCc2cc(F)c(C(F)(F)F)c(F)c2)NC(=O)CN(C)C(=O)[C@H](CC2CCC(F)(F)CC2)N2CC/C=C\C[C@@H](C2=O)N(C)C(=O)CN(C2CC2)C1=O [PP2622]
HRAS/KRAS (ratio of KD value with respect to GDP-bound HRAS wild-type protein to KD value with respect to KRAS) [1, 3]: B (a compound having 3 or more and less than 10 is denoted as B)
NRAS/KRAS (ratio of KD value with respect to GDP-bound NRAS wild-type protein to KD value with respect to KRAS) [2, 4]: A (a compound having 10 or more and less than 20 is denoted as A)

CCO[C@@H]1C[C@H]2C(=O)NC(C)(C)C(=O)N(C)[C@@H](C3CCCC3)C(=O)N(C)[C@H](C(=O)N(C)CC)CC(=O)N(C)[C@@H](CC(C)C)C(=O)N[C@@H]([C@@H](C)CC)C(=O)N(C)CC(=O)N(C)[C@H]3C/C=C\CCN(C3=O)[C@@H](Cc3ccc(C(F)(F)F)cc3)C(=O)N(C)CC(=O)N[C@@H](CCc3cc(F)c(C(F)(F)F)c(F)c3)C(=O)N2C1 [PP1937]
HRAS/KRAS (ratio of KD value for HRAS to KD value for KRAS) [1, 5]: A (a compound having 10 or more and less than 20 is denoted as A)
NRAS/KRAS (ratio of KD value for NRAS to KD value for KRAS) [2, 6]: A (a compound having 10 or more and less than 20 is denoted as A)
